Earlier results, collected in patent publication US20130096134A1, “HETEROCYCLIC COMPOUNDS AND THEIR USES” (Amgen Inc., priority 2010, published 2013).

Assays:
[1] = test system: mouse model of rheumatoid arthritis; conditions: in vivo
[2] = test system: model of systemic lupus erythematosis; conditions: in vivo
[3] = molecular target: T1, p110δ (Homo sapiens, UniProt O00329)
T1 sequence (O00329 1-1044): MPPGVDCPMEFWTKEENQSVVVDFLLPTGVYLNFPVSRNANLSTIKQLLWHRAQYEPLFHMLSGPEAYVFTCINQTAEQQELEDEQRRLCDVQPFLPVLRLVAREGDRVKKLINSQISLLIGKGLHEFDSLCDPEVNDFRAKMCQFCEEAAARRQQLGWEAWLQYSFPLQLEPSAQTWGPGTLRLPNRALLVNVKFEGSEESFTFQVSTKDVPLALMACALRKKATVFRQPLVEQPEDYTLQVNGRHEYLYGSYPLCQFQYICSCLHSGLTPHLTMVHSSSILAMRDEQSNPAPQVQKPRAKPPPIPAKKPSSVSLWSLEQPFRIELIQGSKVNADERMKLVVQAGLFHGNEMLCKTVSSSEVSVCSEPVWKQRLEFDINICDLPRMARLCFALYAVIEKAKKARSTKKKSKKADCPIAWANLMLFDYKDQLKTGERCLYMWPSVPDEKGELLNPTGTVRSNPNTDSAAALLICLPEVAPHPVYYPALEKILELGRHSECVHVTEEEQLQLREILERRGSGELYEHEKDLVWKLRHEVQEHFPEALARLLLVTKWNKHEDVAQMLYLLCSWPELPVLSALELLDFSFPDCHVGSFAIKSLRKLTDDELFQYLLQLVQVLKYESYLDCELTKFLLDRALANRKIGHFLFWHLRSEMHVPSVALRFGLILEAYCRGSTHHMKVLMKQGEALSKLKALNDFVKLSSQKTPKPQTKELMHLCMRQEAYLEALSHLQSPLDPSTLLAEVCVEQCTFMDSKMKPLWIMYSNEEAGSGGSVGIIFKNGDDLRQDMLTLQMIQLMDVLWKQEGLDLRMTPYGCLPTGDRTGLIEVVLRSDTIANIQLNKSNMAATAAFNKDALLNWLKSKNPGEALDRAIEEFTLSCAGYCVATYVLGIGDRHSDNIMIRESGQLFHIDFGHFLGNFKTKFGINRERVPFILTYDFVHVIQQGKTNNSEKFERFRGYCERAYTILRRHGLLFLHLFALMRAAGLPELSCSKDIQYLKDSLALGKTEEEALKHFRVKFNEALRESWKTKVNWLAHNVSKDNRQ

[4] = test system: protein kinases
[5] = test system: murine model of asthma; conditions: ovalbumin-induced airway inflammation

O=C1NC(=O)/C(=C\c2ccc3nccnc3c2)S1 [AS 605240]
efficacy in a mouse model of rheumatoid arthritis [1]: efficacious
onset of disease in a model of systemic lupus erythematosis [2]: delay onset of disease

Cc1ccccc1-n1c(Cn2cnc3c(N)ncnc32)nc2cccc(C)c2c1=O [IC87114]
inhibition of p110δ [3]: high nanomolar range (triple digit)
activity against any protein kinases tested [4]: no activity
inflammation and disease in a murine model of asthma [5]: significantly ameliorate inflammation and disease
